Like-named read-outs stand apart in the source and are kept apart here.

The test system of this assay is PMA-differentiated THP-1 cells. The experiment in a line: IL-1β production in PMA-differentiated THP-1 cells stimulated with gramicidin (hTHP-1 assay containing 2% fetal bovine serum; Procedures 1 and 2). The format is cell-based, human. To be noted: 2% fetal bovine serum. The procedure, abridged:
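Compound titrations in 0.37% final DMSO were added to THP-1 cells that had been plated after 16-18 h PMA treatment, 50,000 per well in 2% FBS. One hour later the cells received gramicidin (5 μM, 2 h) and were centrifuged. HTRF detected IL-1β in the collected supernatants.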

Setting [1] is: Homo sapiens, THP-1, Table B3, hTHP-1 assay, class symbols, read-out: IC50.
[2] abbreviates: Table B1, class symbols, read-out: Average IC50 of compounds in hTHP-1 assay: hTHP-1 IC50.
The mark [3] stands for this setting: Homo sapiens, THP-1, Table B1, class symbols, read-out: Average IC50 of compounds in hTHP-1 assay: hTHP-1 IC50.

As for `C[C@H](O)c1csc([S@@](N)(=O)=NC(=O)Nc2c3c(nc4c2CC[C@H]4C)CCC3)c1` (single isomer, unassigned) [Example 662, (S)-4-((S) or (R)-1-hydroxyethyl)-N′-(((R)-3-methyl-1,2,3,5,6,7-hexahydrodicyclopenta[b,e]pyridin-8-yl)carbamoyl)thiophene-2-sulfonimidamide], the IC50 – broadly, the concentration needed to halve the response being measured – under setting [1] fell in the range of 5000 to 30000 nM.

With `CC(C)(O)c1cc(S(N)(=O)=NC(=O)Nc2c3c(nc4c2CCC4)CCC3)nn1-c1ccccc1` (single isomer, unassigned) [Compound 159a, (R) or (S)-N′-((1,2,3,5,6,7-hexahydrodicyclo-penta[b,e]pyridin-8-yl)carbamoyl)-5-(2-hydroxypropan-2-yl)-1-phenyl-1H-pyrazole-3-sulfonimidamide], the IC50 under setting [2] was in the range of 1000 to 5000 nM.

Regarding `CC(C)(O)c1ncc(S(N)(=O)=NC(=O)Nc2c3c(nc4c2CCC4(C)C)CCC3)s1` (single isomer, unassigned) [Compound 153b, (R) or (S)-N′-((3,3-dimethyl-1,2,3,5,6,7-hexahydro-dicyclopenta[b,e]pyridin-8-yl)carbamoyl)-2-(2-hydroxypropan-2-yl)thiazole-5-sulfonimidamide], the IC50 under setting [2] lay within 40 to 200 nM.

`CC(C)n1cc(F)c(S(N)(=O)=NC(=O)Nc2c3c(nc4c2CCC4)CCC3)n1` (centres unmarked) [Example 750, 4-Fluoro-N′-((1,2,3,5,6,7-hexahydrodicyclopenta[b,e]pyridin-8-yl)carbamoyl)-1-isopropyl-1H-pyrazole-3-sulfomidamide]: the IC50 (Homo sapiens, THP-1, Table B4, class symbols, read-out: hTHP-1 IC50) was in the range of 200 to 1000 nM.

As to `CCc1c(C(F)(F)F)nc2c(c1NC(=O)N=S(N)(=O)c1nn(CC)cc1F)CCC2` (single isomer, unassigned) [Example 771, (R) or (S)-1-ethyl-N′-((3-ethyl-2-(trifluoromethyl)-6,7-dihydro-5H-cyclopenta[b]pyridin-4-yl)carbamoyl)-4-fluoro-1H-pyrazole-3-sulfonimidamide], the IC50 (Table B4, class symbols, read-out: hTHP-1 IC50) was in the range of 200 to 1000 nM.

`CC(C)(O)c1cc(F)c([S@@](N)(=O)=NC(=O)Nc2cc(CC(F)(F)F)nc3c2CCC3)s1` [Compound 602a]: the IC50 (Homo sapiens, THP-1, Table B2, numeric bounds, read-out: hTHP-1 IC50) is greater than 30000 nM.

In the case of `Cc1nc(C(C)(C)O)ccc1S(N)(=O)=NC(=O)Nc1c2c(nc3c1CCC3)CCC2` (single isomer, unassigned) [Compound 157b, (R) or (S)-N′-((1,2,3,5,6,7-hexahydrodicyclo-penta[b,e]pyridin-8-yl)carbamoyl)-6-(2-hydroxypropan-2-yl)-2-methylpyridine-3-sulfonimidamide], the IC50 under setting [3] was in the range of 5000 to 30000 nM.

Turning to `CC1(C)CCc2c1nc1c(c2NC(=O)NS(=N)(=O)c2cnc([C@@](C)(O)COCCOCCOCCOCCO)s2)CCC1` (stereo partly drawn) [Example 584, 2-((S)-1,14-dihydroxy-3,6,9,12-tetraoxapentadecan-14-yl)-N-((3,3-dimethyl-1,2,3,5,6,7-hexahydrodicyclopenta[b,e]pyridin-8-yl)carbamoyl)thiazole-5-sulfonimidamide], the IC50 (Homo sapiens, THP-1, Table B3, hTHP-1 assay, numeric values, read-out: IC50) is greater than 30000 nM.

With `CC(C)n1nc(S(N)(=O)=NC(=O)Nc2c3c(nc4c2CCC42CC2)CCC3)cc1CO` (single isomer, unassigned) [Example 641, (R) or (S)-5-(hydroxymethyl)-1-isopropyl-N′-((1′,5′,6′,7′-tetrahydro-2′H-spiro[cyclopropane-1,3′-dicyclopenta[b,e]pyridin]-8′-yl)carbamoyl)-1H-pyrazole-3-sulfonimidamide], the IC50 under setting [1] lay within 1000 to 5000 nM.

Take `CC(C)(O)c1sc(S(N)(=O)=NC(=O)Nc2c3c(nc4c2CCC4)CCC3)cc1Cl` (centres unmarked) [Compound 688, 4-Chloro-N′-((1,2,3,5,6,7-hexahydrodicyclopenta[b, e]pyridin-8-yl)carbamoyl)-5-(2-hydroxypropan-2-yl)thiophene-2-sulfonimidamide]: the half-maximal inhibitory concentration (IC50) (Homo sapiens, THP-1, Table B2, class symbols, read-out: hTHP-1 IC50) fell in the range of 1000 to 5000 nM.

Consider `CC(C)n1ccc(S(N)(=O)=NC(=O)Nc2c3c(nc4c2CCC4)CCC3)n1` (centres unmarked) [Compound 119, N′-((1,2,3,5,6,7-hexahydrodicyclopenta[b,e]pyridin-8-yl)carbamoyl)-1-isopropyl-1H-pyrazole-3-sulfonimidamide], for which the IC50 under setting [3] lay in the range of 1000 to 5000 nM.

For the origin of these results see patent US20230031406A1, “COMPOUNDS AND COMPOSITIONS FOR TREATING CONDITIONS ASSOCIATED WITH NLRP ACTIVITY” (Novartis AG, priority 2018, published 2023).
